From patent US20070037785A1, “Novel dipeptidyl peptidase IV inhibitors used for functionally influencing different cells and treating immunological, infammatory, neuronal, and other diseases” (priority 2003, published 2007)

Biological target: dipeptidyl peptidase IV (Homo sapiens, UniProt P27487)
Assay: biochemical
Conditions: values marked with "*" are ID50 values; read-out: IC50DPIV, values marked with "*" = ID50

Chain of dipeptidyl peptidase IV (P27487 whole entry, species assumed): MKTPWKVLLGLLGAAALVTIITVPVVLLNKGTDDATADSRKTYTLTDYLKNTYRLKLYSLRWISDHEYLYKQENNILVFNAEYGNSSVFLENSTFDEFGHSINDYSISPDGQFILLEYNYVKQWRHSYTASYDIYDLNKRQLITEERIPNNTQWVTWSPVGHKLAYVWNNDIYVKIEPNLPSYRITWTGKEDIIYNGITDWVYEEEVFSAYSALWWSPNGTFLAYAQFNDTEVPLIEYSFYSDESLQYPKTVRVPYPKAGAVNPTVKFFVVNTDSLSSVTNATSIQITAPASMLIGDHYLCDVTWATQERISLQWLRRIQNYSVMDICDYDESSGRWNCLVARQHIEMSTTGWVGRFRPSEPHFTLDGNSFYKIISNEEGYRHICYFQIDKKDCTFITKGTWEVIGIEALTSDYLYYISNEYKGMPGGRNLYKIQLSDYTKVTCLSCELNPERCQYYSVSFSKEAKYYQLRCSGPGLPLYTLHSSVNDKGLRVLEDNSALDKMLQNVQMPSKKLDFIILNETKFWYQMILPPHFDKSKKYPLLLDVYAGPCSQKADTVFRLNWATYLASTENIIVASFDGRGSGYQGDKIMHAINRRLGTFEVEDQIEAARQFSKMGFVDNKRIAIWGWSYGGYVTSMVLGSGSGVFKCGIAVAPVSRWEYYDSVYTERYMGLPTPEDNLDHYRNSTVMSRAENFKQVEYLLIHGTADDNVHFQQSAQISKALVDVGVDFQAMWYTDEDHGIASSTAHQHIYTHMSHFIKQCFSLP

SMILES	IC50
CC1(C)NCC(c2ccccc2)CC1O (stereo not shown) [D4.088]	96.2 µM
O=C(Oc1cccc(-n2cnnn2)c1)C1CC1 [D4.089]	98.4 µM
Oc1ccc(-c2csc(Nc3ncccn3)n2)cc1O [D4.095]	163 µM
O=C1CSCC(=O)N1c1ccc(F)cc1F [D4.100]	216 µM
CCCc1c(C)nc(N)c(C#N)c1-c1ccccc1 [D4.104]	255 µM
O=C(c1cc(C(=O)N2CCOCC2)cc([N+](=O)[O-])c1)N1CCOCC1 [D5.009]	10.7 µM
CC12NCC(c3ccccc3)CC1O2 (stereo not shown) [D5.047]	96.6 µM
O=C(Nc1cccc(/N=C/c2cc(/N=N\c3ccccc3Cl)ccc2O)c1)c1ccco1 [D6.003]	2.5 µM

The next lines start with the values.

IC50	SMILES
71.3 µM	CC(=O)Nc1ccc(Nc2ccc(N3C(=O)CCCC3=O)cc2[N+](=O)[O-])cc1 [D4.079]
172 µM	CC(C)c1ccc(N2CC(C(=O)Nc3ccc(Br)cc3Br)CC2=O)cc1 (stereo not shown) [D4.096]
231 µM	CN(Cc1ccccc1)c1ccc(N2C(=O)CCCC2=O)cc1[N+](=O)[O-] [D4.101]
361 µM	CS(=O)(=O)N1CCN(c2ccc([N+](=O)[O-])c(NCc3ccc(Cl)cc3)c2)CC1 [D4.112]
394 µM	N#C/C(=C\c1ccc(-c2ccc(Cl)cc2)o1)C(=O)Nc1cccc([N+](=O)[O-])c1 [D4.114]
456 µM	N#C/C(=C\c1ccc(N2Cc3ccccc3C2)cc1)C(=O)NCc1ccco1 [D4.118]
69.8 µM	CCOC(=O)c1c(CNC(=O)CN2CCN(c3nc4c([nH]3)c(=O)[nH]c(=O)n4C)CC2)[nH]c2ccc(F)cc12 [D5.043]
361 µM	CS(=O)(=O)N1CCN(c2ccc([N+](=O)[O-])c(NCc3ccc(Cl)cc3)c2)CC1 [D5.053]

Same assay, conditions: values without "*" = IC-50; read-out: IC50DPIV

SMILES	IC50
CCOC(=O)c1cc(-c2ccc(/C=C3/C(=O)NC(=O)C(C#N)=C3C)o2)ccc1Cl [D4.069]	56.7 µM
C/C(=C\c1ccc(C(C)C)cc1)C1NCC(c2ccc([N+](=O)[O-])cc2)O1 (stereo not shown) [D4.072]	65 µM
CCOC(=O)c1ccc(-c2ccc(/C=C3\C(=O)N(CCO)C(=O)C(C#N)=C3C)o2)cc1 [D4.074]	65.9 µM
CC1=C(C#N)C(=O)N(CC(C)O)C(=O)/C1=C/c1ccc(-c2ccc(Br)cc2)o1 (stereo not shown) [D4.080]	73.8 µM
CCCOC(=O)c1cc(-c2ccc(/C=C3\C(=O)N(CCCO)C(=O)C(C#N)=C3C)o2)ccc1Cl [D4.081]	76.3 µM
CCCOC(=O)c1cc(-c2ccc(/C=C3/C(=O)N(CC(C)O)C(=O)C(C#N)=C3C)o2)ccc1Cl (stereo not shown) [D4.083]	82.2 µM
NCc1ccccc1-n1cccc1 [D4.085]	92.5 µM
O=C1CSCC(=O)N1c1ccc(F)cc1 [D4.086]	94.5 µM
CC1=C(C#N)C(=O)N=C(O)/C1=C\c1ccc(-c2ccc(Cl)cc2Cl)o1 [D4.087]	95.8 µM
Cc1[nH]c2ccccc2c1C(c1cc(Cl)ccc1O)N1CCOCC1 (stereo not shown) [D5.007]	12.1 µM
CCOC(=O)C(NC(=O)c1ccc(OC)cc1)(N1CCOCC1)C(F)(F)F (stereo not shown) [D5.021]	29.2 µM
Cc1ccc(C(=O)N/C(=C\c2ccco2)C(=O)N2CCOCC2)cc1C [D5.033]	46.5 µM
CCN(CC)C(=O)C1CCCN(c2ccc([N+](=O)[O-])cc2/C=N/NC(=O)c2cccc([N+](=O)[O-])c2)C1 (stereo not shown) [D5.036]	54 µM
CCOC(=O)C(NC(=O)c1ccccc1)(N1CCOCC1)C(F)(F)F (stereo not shown) [D5.041]	61.9 µM
CN(C)CCNc1nc2c(c(=O)n(C)c(=O)n2C)n1Cc1ccccc1Cl [D6.006]	7.5 µM

The remaining lines, values ahead:

IC50	SMILES
55 µM	O=C1CCCC(=O)N1c1ccc(NCCOCCO)c([N+](=O)[O-])c1 [D4.065]
56.2 µM	CCOc1ccc(/C=N/NC(=O)c2cc(-c3c(OC)ccc4ccccc34)n[nH]2)cc1 [D4.068]
57 µM	NC(=O)C1CCN(c2ccc(N3C(=O)CCCC3=O)cc2[N+](=O)[O-])CC1 [D4.070]
60.7 µM	COc1ccc(C2(N3CCCC3)Oc3ccccc3C(C#Cc3ccccc3)=C2C)cc1 (stereo not shown) [D4.071]
65.6 µM	CC(=O)Oc1cccc(N2C(=O)C3C(C2=O)C2(C)C=CC3(C)O2)c1 (stereo not shown) [D4.073]
66.6 µM	O=C1C(N2CCOCC2)=C(Cl)/C(=N/S(=O)(=O)c2ccc(Cl)cc2)C(Cl)(Cl)C1(Cl)Cl [D4.075]
70.1 µM	COc1ccccc1C1NCC(c2ccc([N+](=O)[O-])cc2)O1 (stereo not shown) [D4.077]
70.4 µM	CCOC(=O)N1CCN(c2ccc(N3C(=O)CCCC3=O)cc2[N+](=O)[O-])CC1 [D4.078]
19.2 µM	COc1ccc(N2CCN(c3nc4c(c(=O)[nH]c(=O)n4C)n3Cc3ccccc3)CC2)cc1 [D5.020]
30.8 µM	CCCn1c(N2CCN(CC(=O)c3c(C)n(C)c4ccccc34)CC2)nc2c1c(=O)[nH]c(=O)n2C [D5.023]
34.1 µM	O=C1NCCCCC1Nc1ccc(N2C(=O)CCCC2=O)cc1[N+](=O)[O-] (stereo not shown) [D5.026]
48.3 µM	Cn1c(=O)n(Cc2ccccc2)c(=O)c2c1nc(N1CCNCC1)n2Cc1ccccc1 [D5.034]
54.8 µM	O=C1CCCC(=O)N1c1ccc(NCCc2ccc(O)cc2)c([N+](=O)[O-])c1 [D5.037]
7.5 µM	CC(C)(C)C(=O)Nc1ccc(C(=O)Nc2nccs2)cc1 [D6.007]
7.5 µM	Cc1ccc(C2N(CC(C)C)CC(C(=O)c3c(C)cccc3C)N2CCCN2CCCC2=O)cc1 (stereo not shown) [D6.008]
